From patent US9023875B2, “Macrocyclic compounds and methods of treatment” (University of Florida Research Foundation, Inc., priority 2007, dated 2015)
Read-outs that look alike come from different tables or passages of the source. Starred links: 1 amine or outer side, 2 acyl side, 3 side chain; linkers in the order of their positions; H or OH if unused. Positions of bridges follow the written chain, without caps; N, C: chain ends. Non-standard residues stand in square brackets, D forms with d. Residues, ends and D or L forms follow the SMILES beside them. Chains are numbered I, II in the order given. Actinocin(9to1) = Cc1c2oc3c(C)ccc(C(=O)[*:1])c3nc-2c(C(=O)[*:2])c(N)c1=O; NMeV = CN[C@H](C(=O)O)C(C)C; Sar = CNCC(=O)O

How the values were obtained:
[1] = test system: NIH3T3 cells (nontransformed fibroblasts); test: cells; assay type: cell-based; settings: for GI50: read-out: Growth-inhibitory activity (GI50), NIH3T3
Experimental: (§1) Cell culture medium was purchased from Invitrogen and fetal bovine serum (FBS) from Hyclone. Cells were propagated and maintained in DMEM medium (high glucose) supplemented with 10% FBS at 37° C. humidified air and 5% CO2.
(§2) Cells suspended in DMEM containing 10% FBS were plated in 96-well plates (MDA-MB-231: 12,000 cells; NMuMG: 5,000 cells; U20S: 5,000 cells; HT29: 10,000 cells; 1MR-32: 30,000 cells; NIH3T3: 5,000 cells) incubated (37° C., 5% CO2) and 24 h later treated with various concentrations of compound 1 or solvent control (1% EtOH). After another 48 h of incubation, cell viability was measured using MITT according to manufacturer's instructions (Promega).
(§3) MDA-MB-231 and NMuMG cells were also treated with paclitaxel (in DMSO), actinomycin D (in DMSO) and doxorubicin (in H2O) and corresponding solvent control (1%) in the same manner. GI50 and LC50 values were calculated as previously described (K. D. Paull, E. Hamel, L. Malspeis, In Cancer Chemotherapeutic Agents, W. E. Foye, Ed., American Chemical Society, Washington, D.C., 1995, pp. 10-11).
(§4) [formula] [formula] [T=absorbance in treated wells (48 h); T0=absorbance at time zero; C=absorbance in control wells (48 h)]

[2] = test system: MDA-MB-231 cells (highly invasive transformed human mammary epithelial cells); test: cells; assay type: cell-based
Experimental: as §1, §2, §3, §4

[3] = test system: NMuMG cells (nontransformed murine mammary epithelial cells); test: cells; assay type: cell-based; settings: 48 h, read-out: Growth-inhibitory activity (GI50), NMuMG
Experimental: as §1, §2, §3, §4

[4] = test system: U2OS cells (fibroblastic osteosarcoma); test: cells; assay type: cell-based; settings: for GI50: read-out: Growth-inhibitory activity (GI50), U2OS
Experimental: as §1, §2, §3, §4

HCT-116 cells = test: HCT-116 growth inhibition; assay type: cell-based; settings: Homo sapiens
HDAC = test: In vitro cellular HDAC activity assay (fluor de Lys substrate) in HCT-116 cells; assay type: cell-based; settings: 8 h
Experimental: HCT-116 cells are seeded in 100 μL of medium per well at a density of 3.5×10^3 cells/well and grown for 24 h in a sterile 96-well solid bottom plate. The assay is carried out according to the manufacturer's instructions (BIOMOL). Briefly, after 24 h the medium iss replaced with 50 μL/well of medium containing 200 μM fluor de Lys™ substrate and 1 μM of trichostatin A (positive control) and test compounds (largazole, acetyl derivative) ranging from 1 μM to 3.2 nM ([…]) and thiol compound ranging from 10 μM to 300 pM. Plates are incubated at 37° C. for 8 h. After the treatment time, 50 μL per well of 1× fluor de Lys™ Developer containing TSA at 2 μM iss added. After developer addition, plates are incubated for 15 min at 37° C. and fluorescence is read (Ex 360 nm, Em 460 nm).

in vitro = assay type: cell-based, murine; settings: mouse, NMuMG cells, MTT, read-out: LC50 (cytotoxicity), NMuMG
Experimental: as §1, §2, §3, §4

[5] = test system: HeLa nuclear extract HDACs (class I HDACs 1, 2, and 3); test: Cell-free enzymatic assay with HDAC-enriched HeLa nuclear protein extract; assay type: biochemical; settings: fluor de Lys substrate
Experimental: Largazole (1) inhibited HDAC activity from a HeLa cell nuclear protein extract rich in class I HDACs 1, 2, and 3 (BIOMOL); however, it is possible that the thioester is cleaved under assay conditions. To investigate that thiol 9 is a reactive species, we liberated 9 from the acetyl analog 8 of largazole (1) and measured enzymatic activity directly; thiol 9 inhibited the HDACs in the nuclear extract of HeLa cells with a similar IC50 value (Table 3).
Assay buffer (25 ul in blank and 10 ul in control), 1 μM triehostatin and test inhibitors (ranging from 10 μM to 300 pM) are added to test sample wells of the microtiter plate. HDAC-enriched nuclear protein extract from HeLa cells (BIOMOL) (5 μg in 15 uL) is added to all wells except in the no-enzyme control. The assay plate is equilibrated at 37° C., and then 25 μl of substrate fluor de Lys™ substrate is added to a final concentration of 116 μM. HDAC reaction is allowed to proceed for 15 min and then stopped by addition of 50 μl per well of 1× fluor de Lys™ Developer containing TSA at 2 μM. After developer addition, plates are incubated for 15 min at 37° C. and fluorescence is read (Ex 360 nm, Em 460 nm).

[6] = test system: IMR-32 cells (neuroblastoma cell line); test: Cell viability (MTT) assay, IMR-32; assay type: cell-based; settings: Homo sapiens, 48 h
Experimental: as §1, §2, §3, §4

acetylated histone H3 = test: Immunoblot analysis of acetylated histone H3 in HCT-116 cells; assay type: cell-based; settings: 8 h
Experimental: HCT-116 cells (650,000 cells/dish) are seeded in 10-cm dishes and 24 h later treated with various concentrations of largazole, trichostatin or solvent controls (EtOH for largazole and DMSO for trichostatin). Following incubation for 8 h, whole-cell lysates are prepared using PhosphoSafe lysis buffer (Novagen), proteins extracted, and protein concentration measured using the BCA method (Pierce). Cell lysates containing equal amounts of protein are separated by SDS-PAGE, transferred to PVDF membranes, probed with antibodies and detected with the Supersignal Femto Western blotting kit (Pierce). Anti-acetyl-histone H3 (Lys9/18) and anti-histone H3 primary antibodies are obtained from Millipore and horseradish peroxidase conjugated anti-rabbit secondary antibody is purchased from Cell Signaling.

[7] = test system: HT29 cells (colon cancer cell line); test: Cell viability (MTT) assay, HT29; assay type: cell-based; settings: Homo sapiens, HT-29, 48 h
Experimental: as §1, §2, §3, §4

[8] = Mus musculus, NIH3T3 cells, 48 h, MTT
[9] = Homo sapiens, MDA-MB-231, 48 h, MDA-MB-231 cells, 48 h, MTT, read-out: Growth-inhibitory activity (GI50), MDA-MB-231
[10] = Mus musculus, Epithelial cell, NMuMG cells, MTT
[11] = Homo sapiens, U2OS cells, 48 h, MTT

For `CC(=O)O[C@H]1C(=O)[C@@]2(C)[C@H]([C@H](OC(=O)c3ccccc3)[C@]3(O)C[C@H](OC(=O)[C@H](O)[C@@H](NC(=O)c4ccccc4)c4ccccc4)C(C)=C1C3(C)C)[C@]1(OC(C)=O)CO[C@@H]1C[C@@H]2O` [Paclitaxel, reference compound], the GI50 [1, 8] was 0.0064 µM, the GI50 [2, 9] was 0.007 µM and the GI50 [3, 10] was 0.0059 µM. The GI50 [4, 11] was 0.012 µM.

Compound `CCCCCCCC(=O)SCC/C=C/[C@@H]1CC(=O)NCc2nc(cs2)C2=N[C@@](C)(CS2)C(=O)N[C@@H](C(C)C)C(=O)O1` [Largazole (1), largazole] has a GI50 (HCT-116 cells) of 0.044 ± 0.01 µM, an IC50 (HDAC) of 0.051 ± 0.003 µM and a GI50 ([1]; Mus musculus, NIH3T3, 48 h) of 0.48 µM. For the same compound, the “Toxicity (cytotoxicity) in NIH3T3” value ([1]; NIH3T3 cells, 48 h, MTT) was “no apparent toxicity”, the GI50 ([2]; Homo sapiens, MDA-MB-231, 48 h, read-out: Growth-inhibitory activity (GI50), MDA-MB-231, MDA-MB-231 cells, 48 h, MTT) was 0.008 µM and the “Differential growth-inhibitory activity between transformed and nontransformed epithelial cells” value ([2]; MDA-MB-231 vs NMuMG (GI50)) was 15 fold. The GI50 ([2]; read-out: Growth-inhibitory activity (GI50), MDA-MB-231, MDA-MB-231 cells, 48 h, MTT) was 0.0077 µM, the GI50 ([3]; Mus musculus, Epithelial cell) was 0.122 µM and the GI50 ([4]; Homo sapiens, U2OS, 48 h) was 0.055 µM. For the same compound, the CC50 ([4]; Homo sapiens, U2OS, 48 h, read-out: LC50 (cytotoxicity), U2OS) was 0.094 µM, the “Differential growth-inhibitory activity between transformed and nontransformed fibroblasts” value ([4]; U2OS vs NIH3T3 (GI50)) was 8 fold and the CC50 at 48 h (in vitro) was 0.272 µM. For the same compound, the IC50 [5] was 0.037 ± 0.011 µM, the GI50 [6] was 0.016 µM and the “Immunoblot of endogenous HDAC substrate acetylated histone H3” value (acetylated histone H3) was “same dose-response relationship”. For the same compound, the GI50 [7] was 0.012 µM and the CC50 ([7]; read-out: LC50 (cytotoxicity), HT29) was 0.022 µM.

With `Cc1c2oc3c(C)ccc(C(=O)N[C@@H]4C(=O)N[C@H](C(C)C)C(=O)N5CCC[C@H]5C(=O)N(C)CC(=O)N(C)[C@@H](C(C)C)C(=O)O[C@@H]4C)c3nc-2c(C(=O)N[C@@H]2C(=O)N[C@H](C(C)C)C(=O)N3CCC[C@H]3C(=O)N(C)CC(=O)N(C)[C@@H](C(C)C)C(=O)O[C@@H]2C)c(N)c1=O` [Actinomycin D, reference compound] (I: T[dV]P[Sar][NMeV] / II: T[dV]P[Sar][NMeV]; ester I:1-I:C, II:1-II:C; linker I:N-II:N via Actinocin(9to1)) the GI50 ([1]; NIH3T3 cells, 48 h, MTT) was 0.0004 µM, the GI50 ([2]; MDA-MB-231 cells, 48 h, MTT, read-out: Growth-inhibitory activity (GI50), MDA-MB-231) was 0.0005 µM and the GI50 ([3]; NMuMG cells, MTT) was 0.0003 µM. The GI50 ([4]; U2OS cells, 48 h, MTT) was 0.0008 µM.

Compound `COc1cccc2c1C(=O)c1c(O)c3c(c(O)c1C2=O)C[C@@](O)(C(=O)CO)C[C@@H]3O[C@H]1C[C@H](N)[C@H](O)[C@H](C)O1` [Doxorubicin, reference compound] has a GI50 [1, 8] of 0.047 µM, a GI50 [2, 9] of 0.31 µM and a GI50 [3, 10] of 0.063 µM. For the same compound, the GI50 [4, 11] was 0.22 µM.

Compound `CC(C)C1NC(=O)C2(C)CSC(=N2)c2csc(n2)CNC(=O)CC(C=CCCS)OC1=O` (centres unmarked) [Compound 9] has a GI50 (HCT-116 cells) of 0.038 ± 0.005 µM, an IC50 (HDAC) of 0.209 ± 0.015 µM and an IC50 [5] of 0.042 ± 0.029 µM.

With `CC(=O)SCCC=CC1CC(=O)NCc2nc(cs2)C2=NC(C)(CS2)C(=O)NC(C(C)C)C(=O)O1` (centres unmarked) [Compound 8] the GI50 (HCT-116 cells) was 0.033 ± 0.002 µM, the IC50 (HDAC) was 0.05 ± 0.018 µM and the IC50 [5] was 0.052 ± 0.027 µM.
